According to PubChem BioAssay (NCI):
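These data come from cells grown in 96-well plates and exposed to compound for 48 hours at five concentrations. GI50: concentration for 50% inhibition of growth. TGI denotes the concentration required for complete inhibition of growth.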

Tests used:
Experiment in all cases: growth of human tumour cells (NCI), 48 h
[1] = tested on: BT-549 breast
[2] = tested on: HS 578T breast
[3] = tested on: M14 melanoma
[4] = tested on: MDA-MB-231 breast
[5] = tested on: PC-3 prostate
[6] = tested on: SR leukemia
[7] = tested on: T-47D breast
[8] = tested on: ACHN renal
[9] = tested on: DMS 114 small cell lung
[10] = tested on: KM20L2 colon

c1ccc(N=C2SC(=NC3CCCCC3)N(C3CCCCC3)C2=Nc2ccccc2)cc1
TGI [1]: > 100 µM | TGI [2]: > 100 µM | TGI [3]: > 100 µM | TGI [4]: > 100 µM | TGI [5]: > 100 µM | TGI [6]: > 100 µM | TGI [7]: > 100 µM

COc1ccccc1C1C(C(=O)O)=C(CO)Oc2cc3c(cc21)OCO3 (stereo not given)
TGI [8]: > 100 µM | TGI [9]: > 100 µM | TGI [10]: > 100 µM | TGI [3]: > 100 µM

Cc1nc(N)sc1-c1ccnc(Nc2ccc(N3CCOCC3)cc2)n1
GI50 [8]: 0.8 µM | TGI [8]: > 100 µM | GI50 [1]: 1.56 µM | TGI [1]: > 100 µM | GI50 [2]: 0.603 µM | TGI [2]: > 100 µM | GI50 [3]: 2.66 µM | TGI [3]: > 100 µM | GI50 [4]: 3.1 µM | TGI [4]: > 100 µM | GI50 [5]: 1.81 µM | TGI [5]: > 100 µM | GI50 [6]: 0.346 µM | TGI [6]: 5.39 µM | GI50 [7]: 2.92 µM | TGI [7]: > 100 µM

Cc1ccc(S(=O)(=O)Oc2cc(-c3ccccc3)nc3ccccc23)cc1
TGI [9]: 1.24 µM | TGI [10]: 3.52 µM

CC(=O)OC1CCC2(C)C3CCC4(C)C(c5ccc(=O)oc5)CC5OC54C3CCC2(O)C1 (stereo not given)
TGI [9]: 0.69 µM | TGI [10]: 13.2 µM

COc1ccc(C2CC(c3cccc(Nc4ccncc4)c3)=NN2c2cc(Cl)cc(Cl)c2)cc1 (stereo not given)
GI50 [8]: 1.7 µM | TGI [8]: 3.08 µM | GI50 [1]: 5.57 µM | TGI [1]: 24.8 µM | GI50 [5]: 1.54 µM | TGI [5]: 3.16 µM | GI50 [6]: 1.53 µM | TGI [6]: 4.34 µM | GI50 [7]: 1.96 µM | TGI [7]: 4.43 µM

NC(Cc1cccc([N+](=O)[O-])c1)C(=O)O (stereo not given)
TGI [8]: > 100 µM | TGI [1]: > 100 µM | TGI [2]: > 100 µM | TGI [3]: > 100 µM | TGI [4]: > 100 µM | TGI [5]: > 100 µM | TGI [7]: > 100 µM

O=C(OC(=O)n1ccc2ccccc21)n1ccc2ccccc21
TGI [9]: > 100 µM | TGI [10]: > 100 µM

NCCCNc1nc2ccccc2c2c(=O)c3cc(OC(F)(F)F)ccc3sc12
GI50 [8]: 1.6 µM | TGI [8]: 2.96 µM | GI50 [1]: 10.7 µM | TGI [1]: 32.6 µM | GI50 [3]: 1.67 µM | TGI [3]: 3.16 µM | GI50 [4]: 1.26 µM | TGI [4]: 2.6 µM | GI50 [5]: 1.67 µM | TGI [5]: 3.19 µM

C=CC(Br)(CBr)CCC(Cl)C(C)C (stereo not given)
TGI [8]: 8.49 µM | TGI [1]: 2.96 µM | TGI [2]: 8.01 µM | TGI [3]: 3.18 µM | TGI [4]: 2.79 µM | TGI [5]: 14.1 µM | TGI [6]: 2.38 µM

CCC[CH2][Ge]([CH2]CCC)([CH2]CCC)[O]C(=O)CC(=O)c1ccccc1
GI50 [8]: 2.67 µM | TGI [8]: 16.8 µM | GI50 [9]: 0.0424 µM | TGI [9]: 3.32 µM | GI50 [10]: 0.77 µM | TGI [10]: 17 µM | GI50 [3]: 1.42 µM | TGI [3]: 8.86 µM | GI50 [6]: 0.707 µM | TGI [6]: 33.6 µM

O=NN(CCCl)C(=O)NC1CCSc2ccccc21 (stereo not given)
TGI [9]: > 100 µM | TGI [10]: > 100 µM

CC(=O)Oc1cccc2c(/C=N/NC(N)=S)ncc(C)c12
TGI [8]: 2.7 µM | TGI [1]: 12.3 µM | TGI [2]: > 73 µM | TGI [3]: 3.18 µM | TGI [4]: 25.8 µM | TGI [5]: 33.6 µM | TGI [6]: > 65.9 µM | TGI [7]: 31.3 µM

Cc1cc(=O)[nH]c(NN2C(Cl)C(=O)C2c2cccc(O)c2)n1 (stereo not given)
TGI [8]: > 100 µM | TGI [9]: 34.8 µM | TGI [10]: 98.5 µM | TGI [3]: > 100 µM | TGI [6]: > 100 µM

Cc1ccc2c(n1)C(=O)c1[nH]c3ccccc3c1C2=O
GI50 [8]: 2.1 µM | TGI [8]: 18.6 µM | GI50 [2]: 2.54 µM | TGI [2]: 7.16 µM | GI50 [4]: 1.85 µM | TGI [4]: 73.6 µM | GI50 [5]: 1.63 µM | TGI [5]: > 100 µM | GI50 [7]: 0.537 µM | TGI [7]: 17.9 µM

O=[N+]([O-])c1ccc(C=C2C(Cl)=C(Cl)C(Cl)=C2Cl)cc1
GI50 [1]: 4.75 µM | TGI [1]: > 100 µM | GI50 [4]: 3.39 µM | TGI [4]: > 100 µM | GI50 [5]: 2.71 µM | TGI [5]: 8.35 µM | GI50 [6]: 2.04 µM | TGI [6]: 7.75 µM | GI50 [7]: 2.16 µM | TGI [7]: 5.46 µM

NNC(N)Nc1ccccc1 (stereo not given)
TGI [8]: > 100 µM | TGI [1]: > 100 µM | TGI [2]: > 100 µM | TGI [3]: > 100 µM | TGI [4]: > 100 µM | TGI [5]: > 100 µM | TGI [6]: > 100 µM | TGI [7]: > 100 µM
